“And” between values parts separate entries of the source, which are not always exact repeats. Identical values can stand only once. Like-named read-outs stand apart in the source and are kept apart here.
Legend:
[1] = Part 1: pharmacokinetics of rimegepant 75 mg ODT alone or coadministered with cyclosporine 200 mg, 2-way crossover
Experimental: This phase 1, open‐label, randomized, single‐dose, 2‐way crossover, 2‐part, drug‐drug interaction study was conducted at a single center (Syneos Health, Québec, Canada). Subjects were screened within 28 days preceding administration of study medication. In part 1, fasted subjects were randomly assigned to a single dose of rimegepant 75 mg ODT or a single dose of rimegepant 75 mg ODT coadministered with cyclosporine 200 mg (2 × 100‐mg capsules). […] Following the completion of part 1, an interim PK analysis and review of data were performed. Part 2 was to be conducted only if the rimegepant AUC from time 0 to infinity (AUC0‐inf) ratio of geometric means in part 1 was increased by >50% when coadministered with cyclosporine. In part 2, fasted subjects were randomly assigned to a single dose of rimegepant 75 mg ODT or a single dose of rimegepant 75 mg ODT coadministered with quinidine 600 mg (2 × 300‐mg tablets).
In part 1, subjects received 1 of the following treatments under fasting conditions: 1 oral dose of rimegepant 75 mg ODT (Catalent Pharma Solutions, Swindon, UK) or 1 oral dose of rimegepant 75 mg ODT coadministered with cyclosporine 200 mg (Novartis Pharmaceuticals Canada Inc., Dorval, Quebec, Canada). In part 2, subjects received 1 of the following treatments under fasting conditions: 1 oral dose of rimegepant 75 mg ODT alone or 1 oral dose of rimegepant 75 mg ODT coadministered with quinidine 600 mg (Sandoz Inc., West Princeton, New Jersey). In parts 1 and 2, the interval between treatments could not exceed 2 minutes.
For each treatment, subjects were confined from the morning of day −1 until after the 24‐hour postdose blood draw on day 2. Subjects returned for all subsequent blood draws. No food was allowed from at least 10 hours before dosing until at least 4 hours after dosing. Meals were standardized and similar in composition between periods. Except for water given with cyclosporine and quinidine, no fluids were allowed from 1 hour before dosing until 1 hour after dosing. Water was provided ad libitum at all other times. […] When appropriate, subjects were accompanied by a staff member while walking.
In each period, 20 blood samples for PK assessment were collected at the following time points: before dosing; 5, 10, 20, 30, 40, and 50 minutes after dosing; and 1, 1.5, 2, 2.5, 3, 4, 5, 6, 8, 12, 24 (day 2), 48 (day 3), and 72 (day 4) hours after dosing. […] Plasma samples were assayed for rimegepant using ultra‐performance liquid chromatography with tandem mass spectrometry detection (LC‐MS/MS). The quantifiable range was 10 to 5000 ng/mL. Plasma samples containing human ethylenediaminetetraacetic acid (EDTA) K2 plasma as an anticoagulant were processed using automated protein precipitation before LC‐MS/MS analysis. The internal standard was rimegepant‐^13C2d4. The validation was performed using an API 5000 LC/MS/MS system with Analyst software, version 1.6.3 (SCIEX, Framingham, Massachusetts). The pump flow was isocratic, with a flow rate set at 0.600 mL/min. The column was an Acquity UPLC BEH C18, 50×2.1 mm, 1.7 μm (Waters Corporation, Framingham, Massachusetts), which was maintained at a temperature of 60°C and contained Milli‐Q type water/acetonitrile with ammonium acetate and acetic acid. The mass‐to‐charge ratios monitored for rimegepant were 535.4 for the precursor ion and 256.1 for the product ion, whereas for the internal standard, they were 541.4 for the precursor ion and 256 for the product ion. […] Incurred sample reanalysis was carried out on ≈10% of randomly selected samples.
The effects of cyclosporine (part 1) or quinidine (part 2) on the single‐dose PK of rimegepant were evaluated using general linear model procedures in SAS (SAS Institute, Cary, North Carolina).

[2] = design: method as in unpublished; settings: rimegepant 75 mg with itraconazole 200 mg once daily for 7 consecutive days, healthy adults; ref unpublished; cited from earlier work
[3] = test system: CYP3A4; design: method as in ref 6, 7 = [6]; 6 PubChem [Internet]. Bethesda (MD): National Library of Medicine (US), National Center for Biotechnology Information; 2004‐. PubChem Compound Summary for CID 51049968, Rimegepant. https://pubchem.ncb || [7]; PMID 32058712; doi:10.1021/acs.jmedchem.9b01810; 7 Dubowchik GM , Conway CM , Xin AW . Blocking the CGRP pathway for acute and preventive treatment of migraine: the evolution of success . J Med Chem . 2020; 63 ( 13 ): 6600 ‐ 6623 . 32058712 10.1021; settings: in vitro, human liver microsomes and recombinant human CYP enzymes; cited from earlier work
[4] = test system: P‐gp; design: method as in ref 7 = [7]; PMID 32058712; doi:10.1021/acs.jmedchem.9b01810; 7 Dubowchik GM , Conway CM , Xin AW . Blocking the CGRP pathway for acute and preventive treatment of migraine: the evolution of success . J Med Chem . 2020; 63 ( 13 ): 6600 ‐ 6623 . 32058712 10.1021; settings: in vitro; cited from earlier work
[5] = test system: BCRP; design: method as in ref 7 = [7]; PMID 32058712; doi:10.1021/acs.jmedchem.9b01810; 7 Dubowchik GM , Conway CM , Xin AW . Blocking the CGRP pathway for acute and preventive treatment of migraine: the evolution of success . J Med Chem . 2020; 63 ( 13 ): 6600 ‐ 6623 . 32058712 10.1021; settings: in vitro; cited from earlier work
[6] = test system: organic anion transporting polypeptide 1B3; design: method as in ref 7 = [7]; PMID 32058712; doi:10.1021/acs.jmedchem.9b01810; 7 Dubowchik GM , Conway CM , Xin AW . Blocking the CGRP pathway for acute and preventive treatment of migraine: the evolution of success . J Med Chem . 2020; 63 ( 13 ): 6600 ‐ 6623 . 32058712 10.1021; settings: in vitro; cited from earlier work
[7] = Safety assessment (adverse events, ECG, vital signs, S-STS) in parts 1 and 2
Experimental: Safety was assessed using adverse events (AEs) that occurred from signing informed consent through 4 days after the last study drug administration, physical examination, body measurements, and the S‐STS. Safety was also assessed through vital signs (blood pressure, heart rate, respiratory rate, oral temperature), and electrocardiography. In part 2, cardiac telemetry was recorded continuously from ≈10 hours before dosing until 6 hours after dosing in each period (8 hours after dosing in subjects receiving quinidine with an increased QT interval at the 6‐hour assessment).
Safety laboratory assessments included a QuantiFERON‐TB test (Hilden, Germany); pregnancy tests (urine and serum); drug, alcohol, and cotinine screen; hematology; biochemistry; coagulation (in case of abnormal liver function tests); serology; and urinalysis.
Safety data were summarized but not subjected to inferential analysis.

[8] = by cyclosporine 200 mg, single dose rimegepant 75 mg ODT, vs rimegepant alone
[9] = coadministration with cyclosporine 200 mg, rimegepant 75 mg
[10] = strong P‐gp inhibitors (cyclosporine, quinidine), parts 1 and 2
[11] = parts 1 and 2, rimegepant alone or coadministered

N[C@@H]1c2cccnc2[C@H](OC(=O)N2CCC(n3c(=O)[nH]c4ncccc43)CC2)CC[C@H]1c1cccc(F)c1F [Rimegepant]
increase in rimegepant AUC0‐inf [1, 8]: 60.1% and 60%
increase in rimegepant Cmax [1, 8]: 41%
rimegepant AUC0‐inf geometric mean ratio (90% CI) versus rimegepant alone [1, 9]: 1.6 (1.49‐1.72)
rimegepant Cmax geometric mean ratio (90% CI) versus rimegepant alone [1, 9]: 1.41 (1.27‐1.57)
Tmax ([1]; human, in vivo, po, 75 mg): 2 h
Tmax ([1]; human, plasma, po): 2.5 h
Tmax ([1]; human, plasma, po, 75 mg): 1.99 h
half-life ([1]; human, plasma, po, 75 mg): 7.59 h
AUC ([1]; human, plasma, po, 75 mg, AUC0‐inf, arithmetic mean (percent coefficient of variation), part 1, rimegepant ODT 75 mg alone, single oral dose, N 15): 4270 ng·h/mL
AUC ([1]; human, plasma, po, 75 mg, AUC0‐inf, geometric least squares mean, part 1, rimegepant 75 mg ODT alone, single oral dose, fasted, N = 15): 4110 ng·h/mL
AUC ([1]; human, plasma, po, 75 mg, AUC0‐t, arithmetic mean (percent coefficient of variation), part 1, rimegepant ODT 75 mg alone, single oral dose, N 15): 4250 ng·h/mL
AUC ([1]; human, plasma, po, 75 mg, AUC0‐t, geometric least squares mean, part 1, rimegepant 75 mg ODT alone, single oral dose, fasted, N = 15): 4090 ng·h/mL
Cmax ([1]; human, plasma, po, 75 mg, arithmetic mean (percent coefficient of variation), part 1, rimegepant ODT 75 mg alone, single oral dose, N 15): 862 ng/mL
Cmax ([1]; human, plasma, po, 75 mg, geometric least squares mean, part 1, rimegepant 75 mg ODT alone, single oral dose, fasted, N = 15): 824 ng/mL
CL/F, arithmetic mean (percent coefficient of variation) ([1]; part 1, rimegepant ODT 75 mg alone, single oral dose, N 15): 19.26 (31.84) L/h
difference in geometric mean t1/2el between treatments ([1]; part 1, rimegepant with cyclosporine vs rimegepant alone): ≤ 5%
increase in rimegepant exposure by strong P‐gp inhibitors, lower bound [1, 10]: > 50%
increase in rimegepant exposure by strong P‐gp inhibitors, upper bound [1, 10]: < 2 fold
increase in rimegepant AUC [2]: 400%
increase in rimegepant Cmax [2]: 40%
metabolising enzyme [3]: primarily metabolized by CYP3A4
substrate of P‐gp transporter [4]: substrate
substrate of BCRP transporter [5]: substrate
substrate of organic anion transporting polypeptide 1B3 [6]: not a substrate
subjects discontinued due to AEs ([7]; part 2, rimegepant group: sinus tachycardia, rimegepant‐quinidine group: false‐positive SARS‐CoV‐2 test): 1 subjects
nausea (TEAE), number of subjects ([7]; parts 1 and 2): 1 subjects
serious AEs [7, 11]: No serious AEs were reported
severity of TEAEs [7, 11]: mild or moderate
tolerability ([7]; single oral dose rimegepant 75 mg ODT alone or coadministered with cyclosporine or quinidine, parts 1 and 2): well tolerated and safe

Reference: PMC9311059, “P‐Glycoprotein and Breast Cancer Resistance Protein Transporter Inhibition by Cyclosporine and Quinidine on the Pharmacokinetics of Oral Rimegepant in Healthy Subjects” (Clinical Pharmacology in Drug Development, 2022)
